# Measured values taken from patent US7943774B2 (priority 2008, dated 2011).
# Assay: log P (pH2.3)
# Format: physicochemical
# Conditions: for chromatographic logP: reversed-phase HPLC column (C18)
# [1] = method [b]: LC-MS, acidic range, pH 2.7, 0.1% aqueous formic acid and acetonitrile
# [2] = method [b]: LC-MS, acidic range, pH 2.7, 0.1% aqueous formic acid and acetonitrile, HPLC on reversed-phase C 18
# [3] = method [c]: LC-MS, neutral range, pH 7.8, 0.001 molar aqueous ammonium bicarbonate solution and acetonitrile, HPLC on reversed-phase C 18
# [4] = method [c]: LC-MS, neutral range, pH 7.8, 0.001 molar aqueous ammonium bicarbonate and acetonitrile
Compound,log p [1],log p [2],other results
O=C(Cn1nc(C(F)F)cc1C(F)F)N1CCC(c2nc(CCc3cccc4ccccc34)cs2)CC1 [Example I-109],4.25^[b],–,–
O=C(Cn1nc(C(F)(F)F)cc1C(F)(F)F)N1CCC(c2nc(C=Cc3c(F)cccc3F)cs2)CC1 (mixture of isomers) [Example I-176],–,4.88^[b],–
O=C(Cn1nc(C(F)(F)F)cc1C(F)(F)F)N1CCC(c2nc(CCC3CCCCC3)cs2)CC1 [Example I-140],–,5.76^[b],–
Cc1cc(C(F)(F)F)nn1CC(=O)N1CCC(c2nc(C#Cc3ccccc3Br)cs2)CC1 [Example I-207],–,4.16^[b],log p [3]: 4.19^[c];
COc1ccc(/C=C\c2csc(C3CCN(C(=O)Cn4nc(C(F)(F)F)c(Cl)c4C)CC3)n2)cc1 [Example I-14],4.46^[b],–,–
Cc1ccc(C)c(CC(=O)N2CCC(c3nc(/C=C\c4ccccc4C)cs3)CC2)c1 [Example I-237],–,4.86^[b],log p [3]: 4.95^[c];
"O=C(Cc1cc(C(F)(F)F)ccc1Cl)N1CCC(c2nc(CCc3ccccc3)cs2)CC1 [Example I-67, 2-[2-Chloro-5-(trifluoromethyl)phenyl]-1-{4-[4-(2-phenylethyl)-1,3-thiazol-2-yl]piperidin-1-yl}ethanone]",–,–,chromatographic logP [1]: 4.73
Cc1cc(C(F)(F)F)nn1CC(=O)N1CCC(c2nc(C#Cc3c(F)cccc3F)cs2)CC1 [Example I-208],–,3.83^[b],log p [3]: 3.86^[c];
Cc1cccnc1C#Cc1csc(C2CCN(C(=O)Cn3nc(C(F)(F)F)cc3C(F)(F)F)CC2)n1 [Example I-216],–,3.37^[b],–
CC(C(=O)N1CCC(c2nc(CCc3ccccc3)cs2)CC1)n1ccc(C(F)(F)F)n1 (centres unmarked) [Example I-68],3.93^[b],–,–
C#Cc1csc(C2CCN(C(=O)Cc3cc(Cl)ccc3Cl)CC2)n1 [Example I-125],3.08^[b],–,–
O=C(Cn1nc(C(F)F)cc1C(F)F)N1CCC(c2nc(CCC3CCCc4ccccc43)cs2)CC1 (centres unmarked) [Example I-149],–,4.78^[b],–
CC(C)c1cc(C(F)(F)F)n(CC(=O)N2CCC(c3nc(C#Cc4cccc5ccccc45)cs3)CC2)n1 [Example I-122],4.99^[b],–,–
O=C(Cn1ccc(C(F)(F)F)n1)N1CCC(c2nc(/C=C\c3ccccc3)cs2)CC1 [Example I-7],3.72^[b],–,–
O=C(Cn1nc(C(F)F)cc1C(F)F)N1CCC(c2nc(C#Cc3cccc4ccccc34)cs2)CC1 [Example I-117],4.41^[b],–,–
Cc1c(Cl)c(C(F)(F)F)nn1CC(=O)N1CCC(c2nc(/C=C\c3cccc4ccccc34)cs2)CC1 [Example I-19],5.14^[b],–,–
O=C(Cc1cccc(Cl)c1)N1CCC(c2nc(CCc3ccccc3)cs2)CC1 [Example I-57],4.1^[b],–,–
O=C(Cn1nc(C(F)F)cc1C(F)F)N1CCC(c2nc(C#Cc3c(F)cccc3F)cs2)CC1 [Example I-220],–,3.7^[b],log p [3]: 3.73^[c];
"O=C(Cc1ccsc1)N1CCC(c2nc(CCc3ccccc3)cs2)CC1 [Example I-63, 1-{4-[4-(2-Phenylethyl)-1,3-thiazol-2-yl]piperidin-1-yl}-2-(thiophen-3-yl)ethanone]",–,–,chromatographic logP [1]: 3.47
Cc1ccc(C)c(CC(=O)N2CCC(c3nc(CCc4c(F)cccc4F)cs3)CC2)c1 [Example I-160],–,4.48^[b],log p [3]: 4.55^[c];

Compound,log p [1],log p [2],other results
CC(C)(C)c1cc(C(F)(F)F)n(CC(=O)N2CCC(c3nc(C#Cc4cccc5ccccc45)cs3)CC2)n1 [Example I-118],5.48^[b],–,–
Cc1ccccc1C#Cc1csc(C2CCN(C(=O)Cn3nc(C(F)(F)F)cc3C)CC2)n1 [Example I-206],–,4.15^[b],log p [3]: 4.15^[c];
O=C(Cn1nc(C(F)(F)F)cc1C(F)(F)F)N1CCC(c2nc(C#Cc3cccc4ccccc34)cs2)CC1 [Example I-114],5.03^[b],–,–
CC(C)(C)c1cc(C(F)(F)C(F)(F)F)nn1CC(=O)N1CCC(c2nc(C#Cc3cccc4ccccc34)cs2)CC1 [Example I-120],5.59^[b],–,–
"O=C(Cn1cc2ccccc2n1)N1CCC(c2nc(CCc3ccccc3)cs2)CC1 [Example I-70, 2-(2H-Indazol-2-yl)-1-{4-[4-(2-phenylethyl)-1,3-thiazol-2-yl]piperidin-1-yl}ethanone]",–,–,chromatographic logP [1]: 3.14
"O=C(c1cc(C(F)(F)F)ccc1C(F)(F)F)N1CCC(c2nc(CCc3ccccc3)cs2)CC1 [Example I-61, [2,5-Bis(trifluoromethyl)phenyl]{4-[4-(2-phenylethyl)-1,3-thiazol-2-yl]piperidin-1-yl}methanone]",–,–,chromatographic logP [1]: 4.67
C#Cc1csc(C2CCN(C(=O)Cc3cc(C)ccc3C)CC2)n1 [Example I-238],–,2.93^[b];,log p [3]: 2.95^[c]
Cc1cc(C(F)(F)F)nn1CC(=O)N1CCC(c2nc(C=Cc3c(F)cccc3Cl)cs2)CC1 (mixture of isomers) [Example I-242],–,4.48^[b],–
COc1ccc(OC)c(C#Cc2csc(C3CCN(C(=O)Cn4nc(C(F)(F)F)cc4C)CC3)n2)c1 [Example I-106],3.65^[b],–,–
Cc1cc(C)n(CC(=O)N2CCC(c3nc(C#Cc4cccc5ccccc45)cs3)CC2)n1 [Example I-74],–,–,log p [4]: 3.85^[c]
Cc1cc(C)n(CC(=O)N2CCC(c3nc(/C=C/c4ccccc4)cs3)CC2)n1 [Example I-84],3.04^[b],–,–
"O=C(Cc1nc2ccccc2s1)N1CCC(c2nc(CCc3ccccc3)cs2)CC1 [Example I-71, 2-(1,3-Benzothiazol-2-yl)-1-{4-[4-(2-phenylethyl)-1,3-thiazol-2-yl]piperidin-1-yl}ethanone]",–,–,chromatographic logP [1]: 3.68
Cc1cccnc1C#Cc1csc(C2CCN(C(=O)Cn3nc(C(F)F)cc3C(F)F)CC2)n1 [Example I-222],–,2.68^[b],log p [3]: 2.86^[c];
O=C(Cn1nc(C(F)(F)F)cc1C(F)(F)F)N1CCC(c2nc(C#Cc3c(F)cccc3F)cs2)CC1 [Example I-214],–,4.4^[b],–
O=C(Cn1nc(C(F)F)cc1C(F)F)N1CCC(c2nc(C#Cc3ccccc3Br)cs2)CC1 [Example I-219],–,4.04^[b],log p [3]: 4.04^[c];
Cc1ccccc1C=Cc1csc(C2CCN(C(=O)Cn3nc(C(F)(F)F)cc3C)CC2)n1 (mixture of isomers) [Example I-166],–,4.23^[b],–
O=C(Cc1c(F)ccc(F)c1F)N1CCC(c2nc(C#Cc3cccc4ccccc34)cs2)CC1 [Example I-97],4.71^[b],–,–
Cc1cc(C(F)(F)F)nn1CC(=O)N1CCC(c2nc(C#Cc3ccccc3Cl)cs2)CC1 [Example I-101],4.12^[b],–,–
Cc1ccccc1C#Cc1csc(C2CCN(C(=O)Cc3cc(Cl)ccc3Cl)CC2)n1 [Example I-224],–,4.91^[b],–
C#Cc1csc(C2CCN(C(=O)Cn3nc(C(F)F)cc3C(F)F)CC2)n1 [Example I-239],–,2.45^[b],–

Compound,log p [1],log p [2],other results
O=C(Cn1nc(C(F)(F)F)cc1C(F)(F)F)N1CCC(c2nc(CCc3cccc4ccccc34)cs2)CC1 [Example I-43],4.89^[b],–,–
CC(C)(C)c1cc(C(F)(F)F)nn1CC(=O)N1CCC(c2nc(C#Cc3cccc4ccccc34)cs2)CC1 [Example I-119],5.14^[b],–,–
Cc1cc(C(F)(F)F)nn1CC(=O)N1CCC(c2nc(/C=C\Cc3ccccc3)cs2)CC1 [Example I-23],4.41^[b],–,–
CC(C)(C)c1cc(C(F)(F)C(F)(F)F)nn1CC(=O)N1CCC(c2nc(CCc3cccc4ccccc34)cs2)CC1 [Example I-113],5.54^[b],–,–
COc1ccc(/C=C\c2csc(C3CCN(C(=O)Cn4nc(C(F)(F)F)cc4C)CC3)n2)cc1 [Example I-12],3.9^[b],–,–
O=C(Cc1cc(Cl)ccc1Cl)N1CCC(c2nc(C#Cc3ccccc3Br)cs2)CC1 [Example I-225],–,4.91^[b],–
O=C(Cc1cccc(C(F)(F)F)c1)N1CCC(c2nc(CCc3ccccc3)cs2)CC1 [Example I-56],4.26^[b],–,–
O=C(Cn1nc(C(F)(F)F)cc1C(F)(F)F)N1CCC(c2nc(C#Cc3ccccc3Br)cs2)CC1 [Example I-213],–,4.74^[b],–
Cc1ccc(C)c(CC(=O)N2CCC(c3nc(C#Cc4ccccc4C)cs3)CC2)c1 [Example I-230],–,4.75^[b],log p [3]: 4.78^[c];
Cc1cc(C)n(CC(=O)N2CCC(c3nc(/C=C/CC(C)c4ccccc4)cs3)CC2)n1 (centres unmarked) [Example I-85],–,–,log p [4]: 3.83^[c]
CC(C)(C)c1cc(C(F)(F)F)nn1CC(=O)N1CCC(c2nc(CCc3cccc4ccccc34)cs2)CC1 [Example I-111],5.14^[b],–,–
Cc1cc(C)n(CC(=O)N2CCC(c3nc(/C=C/c4cccc5ccccc45)cs3)CC2)n1 [Example I-77],3.58^[b],–,–
O=C(Cn1nc(C(F)(F)F)cc1C(F)(F)F)N1CCC(c2nc(CCc3ccccc3)cs2)CC1 [Example I-59],4.45^[b],–,–
O=C(Cn1ccc(C(F)(F)F)n1)N1CCC(c2nc(/C=C\c3cccc4ccccc34)cs2)CC1 [Example I-18],4.35^[b],–,–
Cc1cccnc1/C=C\c1csc(C2CCN(C(=O)Cn3nc(C(F)(F)F)cc3C(F)(F)F)CC2)n1 [Example I-236],–,2.46^[b],–
Cc1cc(C(F)(F)F)nn1CC(=O)N1CCC(c2nc(/C=C\c3ccccc3)cs2)CC1 [Example I-1],3.91^[b],–,–
O=C(Cc1cc(Br)ccc1Br)N1CCC(c2nc(C#Cc3cccc4ccccc34)cs2)CC1 [Example I-124],5.47^[b],–,log p [4]: 5.52^[c];
Cc1cc(C)n(CC(=O)N2CCC(c3nc(CCc4cccc5ccccc45)cs3)CC2)n1 [Example I-79],–,–,log p [4]: 3.39^[c]
Cc1c(Cl)c(C(F)(F)F)nn1CC(=O)N1CCC(c2nc(/C=C\c3ccccc3)cs2)CC1 [Example I-8],4.56^[b],–,–
CC(C)c1cc(C(F)(F)F)n(CC(=O)N2CCC(c3nc(CCc4cccc5ccccc45)cs3)CC2)n1 [Example I-121],4.89^[b],–,–
